Test results as given in the supplement of paper PMC12463676, “Small-molecule dissolution of stress granules by redox modulation benefits ALS models” (Nature Chemical Biology, 2025).

Assays:
lipoamide = compound: NC(=O)CCCCC1CCSS1 [lipoamide]; assay: thermal stability z-score vs DMSO; higher = more thermally stabilized by treatment; details: HeLa, lipoamide concentration 100 µM
Procedure: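 Cellular thermal proteome profiling in HeLa cells. Cells were treated with 100 µM lipoamide for 1 h, with or without 1 mM arsenate for a further 1 h, then heated to ten temperatures (37-66.3 °C), and soluble protein was quantified by TMT mass spectrometry relative to 0.1% DMSO controls. The thermal stability score (sum of log2 fold changes minus the abundance score) was transformed to a z-score; mean of n = 3 experiments.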

potassium arsenate = compound: O=[As]([O-])(O)O.[K+] [potassium arsenate]; assay: as above; details: HeLa; arsenate concentration 1 mM
Procedure: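 Cellular thermal proteome profiling in HeLa cells treated with 1 mM arsenate for 1 h (DMSO pretreatment), heated to ten temperatures (37-66.3 °C). Soluble protein was quantified by TMT mass spectrometry relative to DMSO controls; the thermal stability score was transformed to a z-score; mean of n = 3 experiments.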

[1] = arsenate co-treatment: 1 mM arsenate 1 h
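Also: each temperature applied for 3 min, abundance score taken as mean log2 fold change at the two lowest temperatures, z-score obtained by mean subtraction and division by SD.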

Chain of UniProt Q05513 (Q05513 whole entry): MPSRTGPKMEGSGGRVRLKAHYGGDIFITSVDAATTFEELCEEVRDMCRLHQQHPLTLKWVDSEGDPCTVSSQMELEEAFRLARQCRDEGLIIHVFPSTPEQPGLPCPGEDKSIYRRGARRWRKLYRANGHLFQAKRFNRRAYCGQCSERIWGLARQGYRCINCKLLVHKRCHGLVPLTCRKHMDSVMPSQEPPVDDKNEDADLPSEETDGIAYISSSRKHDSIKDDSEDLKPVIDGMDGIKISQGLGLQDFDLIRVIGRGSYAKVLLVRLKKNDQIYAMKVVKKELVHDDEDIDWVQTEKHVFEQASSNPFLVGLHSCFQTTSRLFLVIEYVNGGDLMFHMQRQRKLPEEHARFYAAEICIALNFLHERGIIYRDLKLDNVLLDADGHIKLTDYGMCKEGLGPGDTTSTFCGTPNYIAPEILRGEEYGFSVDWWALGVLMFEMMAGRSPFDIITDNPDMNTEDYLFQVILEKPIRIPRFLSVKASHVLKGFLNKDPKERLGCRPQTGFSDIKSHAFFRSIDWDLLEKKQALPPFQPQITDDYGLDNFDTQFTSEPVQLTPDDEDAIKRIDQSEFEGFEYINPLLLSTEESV
Chain of UniProt Q9Y6K0 (Q9Y6K0 whole entry): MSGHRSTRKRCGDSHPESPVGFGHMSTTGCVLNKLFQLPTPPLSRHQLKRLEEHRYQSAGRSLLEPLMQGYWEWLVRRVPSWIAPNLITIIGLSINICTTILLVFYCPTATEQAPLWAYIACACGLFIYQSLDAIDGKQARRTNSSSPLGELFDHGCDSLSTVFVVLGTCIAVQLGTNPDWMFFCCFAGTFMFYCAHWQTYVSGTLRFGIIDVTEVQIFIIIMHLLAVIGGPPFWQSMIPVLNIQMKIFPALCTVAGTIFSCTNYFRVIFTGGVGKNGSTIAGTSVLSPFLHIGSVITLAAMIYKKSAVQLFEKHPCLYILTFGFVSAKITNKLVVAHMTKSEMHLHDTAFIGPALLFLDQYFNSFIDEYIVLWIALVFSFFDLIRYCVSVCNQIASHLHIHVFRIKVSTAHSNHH
Chain of UniProt Q99873 (Q99873 whole entry, looked up): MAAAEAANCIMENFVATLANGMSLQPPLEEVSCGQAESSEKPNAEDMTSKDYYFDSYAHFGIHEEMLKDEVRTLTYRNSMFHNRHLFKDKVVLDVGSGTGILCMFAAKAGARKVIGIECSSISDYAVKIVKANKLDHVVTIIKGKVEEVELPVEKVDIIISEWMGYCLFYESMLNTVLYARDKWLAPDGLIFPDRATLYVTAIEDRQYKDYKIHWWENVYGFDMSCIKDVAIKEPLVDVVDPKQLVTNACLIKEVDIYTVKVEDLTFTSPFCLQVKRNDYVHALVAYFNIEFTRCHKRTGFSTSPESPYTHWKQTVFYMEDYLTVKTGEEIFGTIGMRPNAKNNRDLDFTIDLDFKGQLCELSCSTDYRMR
Chain of UniProt P20908 (P20908 whole entry): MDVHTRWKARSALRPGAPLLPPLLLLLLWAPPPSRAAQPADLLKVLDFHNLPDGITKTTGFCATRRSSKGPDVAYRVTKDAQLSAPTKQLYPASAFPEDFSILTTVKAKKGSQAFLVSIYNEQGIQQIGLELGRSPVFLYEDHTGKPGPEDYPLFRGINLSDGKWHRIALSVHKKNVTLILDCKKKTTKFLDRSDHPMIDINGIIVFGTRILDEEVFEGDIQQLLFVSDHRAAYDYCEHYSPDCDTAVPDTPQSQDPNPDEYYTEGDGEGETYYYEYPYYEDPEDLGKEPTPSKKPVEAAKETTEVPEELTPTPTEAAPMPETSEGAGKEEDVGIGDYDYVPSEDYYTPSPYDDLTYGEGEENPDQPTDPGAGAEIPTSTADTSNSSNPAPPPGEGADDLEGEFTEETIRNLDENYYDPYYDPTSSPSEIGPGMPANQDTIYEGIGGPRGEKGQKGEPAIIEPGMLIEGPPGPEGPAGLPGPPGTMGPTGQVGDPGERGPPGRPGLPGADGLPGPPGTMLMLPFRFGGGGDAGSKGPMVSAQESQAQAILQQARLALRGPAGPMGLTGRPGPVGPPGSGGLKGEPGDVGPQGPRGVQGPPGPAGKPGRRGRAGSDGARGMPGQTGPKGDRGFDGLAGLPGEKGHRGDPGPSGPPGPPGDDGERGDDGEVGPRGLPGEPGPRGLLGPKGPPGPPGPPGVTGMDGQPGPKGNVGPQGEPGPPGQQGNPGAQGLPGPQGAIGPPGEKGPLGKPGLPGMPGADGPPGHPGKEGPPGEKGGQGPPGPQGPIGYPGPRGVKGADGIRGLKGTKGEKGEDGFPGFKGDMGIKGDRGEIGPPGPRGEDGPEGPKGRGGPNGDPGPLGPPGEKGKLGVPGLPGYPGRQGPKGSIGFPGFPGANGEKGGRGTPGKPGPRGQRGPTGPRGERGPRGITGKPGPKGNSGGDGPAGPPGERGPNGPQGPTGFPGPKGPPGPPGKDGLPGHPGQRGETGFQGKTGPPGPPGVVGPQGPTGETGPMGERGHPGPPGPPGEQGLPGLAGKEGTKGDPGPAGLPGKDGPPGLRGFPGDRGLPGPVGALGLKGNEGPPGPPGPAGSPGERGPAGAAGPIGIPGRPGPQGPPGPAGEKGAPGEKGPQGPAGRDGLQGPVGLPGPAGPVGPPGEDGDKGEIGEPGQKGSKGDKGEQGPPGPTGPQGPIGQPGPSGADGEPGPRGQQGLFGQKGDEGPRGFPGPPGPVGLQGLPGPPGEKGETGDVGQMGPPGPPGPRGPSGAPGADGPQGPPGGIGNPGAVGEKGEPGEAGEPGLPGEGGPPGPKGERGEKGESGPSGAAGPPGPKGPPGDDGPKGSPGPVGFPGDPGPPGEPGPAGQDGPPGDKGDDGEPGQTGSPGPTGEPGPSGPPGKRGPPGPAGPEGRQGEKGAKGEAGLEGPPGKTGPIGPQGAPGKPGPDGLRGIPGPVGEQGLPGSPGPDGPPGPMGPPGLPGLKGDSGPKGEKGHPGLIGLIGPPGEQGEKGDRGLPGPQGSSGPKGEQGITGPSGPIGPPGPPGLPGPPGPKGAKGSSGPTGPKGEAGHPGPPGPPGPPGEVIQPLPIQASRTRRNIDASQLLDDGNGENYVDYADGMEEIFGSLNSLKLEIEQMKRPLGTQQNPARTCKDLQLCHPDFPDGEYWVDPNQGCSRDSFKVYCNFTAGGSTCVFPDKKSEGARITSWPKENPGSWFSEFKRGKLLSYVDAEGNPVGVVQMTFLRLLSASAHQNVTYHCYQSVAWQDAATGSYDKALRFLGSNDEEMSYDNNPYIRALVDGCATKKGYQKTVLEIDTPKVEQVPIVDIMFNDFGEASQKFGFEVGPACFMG
Chain of UniProt P28070 (P28070 whole entry): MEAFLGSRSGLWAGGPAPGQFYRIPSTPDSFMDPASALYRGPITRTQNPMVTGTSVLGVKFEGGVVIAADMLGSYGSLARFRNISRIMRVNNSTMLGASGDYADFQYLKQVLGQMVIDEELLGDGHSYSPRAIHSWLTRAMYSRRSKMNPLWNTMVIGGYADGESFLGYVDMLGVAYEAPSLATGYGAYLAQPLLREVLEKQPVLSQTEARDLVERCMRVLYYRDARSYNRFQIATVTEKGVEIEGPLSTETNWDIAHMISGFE
Chain of UniProt P27540 (P27540 whole entry): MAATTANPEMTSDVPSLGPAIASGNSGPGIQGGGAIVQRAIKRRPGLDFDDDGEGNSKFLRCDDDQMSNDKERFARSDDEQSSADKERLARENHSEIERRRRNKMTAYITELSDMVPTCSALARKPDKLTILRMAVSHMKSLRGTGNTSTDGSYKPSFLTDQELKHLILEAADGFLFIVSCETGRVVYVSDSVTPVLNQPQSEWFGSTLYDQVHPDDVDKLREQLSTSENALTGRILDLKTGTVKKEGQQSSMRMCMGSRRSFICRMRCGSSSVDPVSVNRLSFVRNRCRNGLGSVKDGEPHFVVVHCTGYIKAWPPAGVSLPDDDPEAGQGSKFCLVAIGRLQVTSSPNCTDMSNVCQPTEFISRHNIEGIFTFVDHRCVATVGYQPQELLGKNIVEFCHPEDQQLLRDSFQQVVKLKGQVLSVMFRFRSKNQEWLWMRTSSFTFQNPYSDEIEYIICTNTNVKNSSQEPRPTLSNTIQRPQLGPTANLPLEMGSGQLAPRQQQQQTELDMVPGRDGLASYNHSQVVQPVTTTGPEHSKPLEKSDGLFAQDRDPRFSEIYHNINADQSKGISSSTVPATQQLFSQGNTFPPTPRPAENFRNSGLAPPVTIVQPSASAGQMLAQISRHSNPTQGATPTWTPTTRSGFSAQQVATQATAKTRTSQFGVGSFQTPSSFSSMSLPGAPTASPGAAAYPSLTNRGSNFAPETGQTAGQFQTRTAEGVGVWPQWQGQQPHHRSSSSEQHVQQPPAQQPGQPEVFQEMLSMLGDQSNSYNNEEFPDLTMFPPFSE
Chain of UniProt O95834 (O95834 whole entry): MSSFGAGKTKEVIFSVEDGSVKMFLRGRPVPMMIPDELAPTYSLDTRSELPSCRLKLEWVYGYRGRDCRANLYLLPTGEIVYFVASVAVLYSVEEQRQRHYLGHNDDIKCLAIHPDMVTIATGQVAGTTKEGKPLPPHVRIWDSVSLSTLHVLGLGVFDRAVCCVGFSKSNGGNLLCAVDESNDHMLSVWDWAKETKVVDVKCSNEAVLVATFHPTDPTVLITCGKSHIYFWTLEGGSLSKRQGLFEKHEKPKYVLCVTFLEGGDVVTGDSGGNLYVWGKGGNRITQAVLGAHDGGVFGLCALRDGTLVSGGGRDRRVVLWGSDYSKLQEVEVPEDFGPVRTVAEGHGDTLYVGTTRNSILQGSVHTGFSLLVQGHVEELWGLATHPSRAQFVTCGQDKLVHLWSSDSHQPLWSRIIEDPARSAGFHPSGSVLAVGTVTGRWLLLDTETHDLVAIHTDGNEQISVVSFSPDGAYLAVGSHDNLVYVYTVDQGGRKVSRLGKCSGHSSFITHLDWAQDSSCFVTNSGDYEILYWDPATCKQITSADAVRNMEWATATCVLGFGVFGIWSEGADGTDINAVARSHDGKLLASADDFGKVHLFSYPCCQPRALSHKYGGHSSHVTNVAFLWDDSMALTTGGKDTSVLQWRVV
Chain of UniProt P14854 (P14854 whole entry): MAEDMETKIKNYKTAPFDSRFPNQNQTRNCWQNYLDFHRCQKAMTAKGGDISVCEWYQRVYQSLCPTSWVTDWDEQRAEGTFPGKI

Target	thermal stability z-score (lipoamide; [1])	thermal stability z-score (lipoamide; arsenate co-treatment: none)	thermal stability z-score (potassium arsenate)
PRKCZ (UniProt Q05513)	-0.134	-0.119	-0.0717
ALDH7A1 (UniProt P49419)	1.36	0.584	0.994
TSC22D4 (UniProt Q9Y3Q8)	-1.89	-0.035	-0.0991
PRMT1 (UniProt Q99873)	0.147	0.262	-0.12
GLB1 (UniProt P16278)	-0.564	-0.0527	-0.438
CCNH (UniProt P51946)	-0.00877	0.0852	0.325
BAG5 (UniProt Q9UL15)	0.228	0.437	-0.198
NOL12|V9GYY5 (UniProt V9GYY5)	0.0645	-1.5	0.699
DUSP23 (UniProt Q9BVJ7)	1.22	0.839	-0.0505
B3GAT3 (UniProt O94766)	-0.54	-0.00376	0.0971
ATG3 (UniProt Q9NT62)	0.381	0.021	-0.627
MLLT1 (UniProt Q03111)	-0.182	-0.111	-0.0158
GPRC5A (UniProt Q8NFJ5)	0.158	-0.194	0.816
ARNT (UniProt P27540)	0.605	0.794	0.561
MECP2 (UniProt P51608)	-0.157	-0.207	-0.147
PITPNC1 (UniProt Q9UKF7)	-0.545	-0.37	-0.255
NME4 (UniProt O00746)	-1.03	-1.25	-1.86
TSR3 (UniProt Q9UJK0)	-0.214	-0.723	-1.75
CEPT1 (UniProt Q9Y6K0)	0.685	0.4	0.959
TXNRD1 (UniProt Q16881)	1.24	1.25	4.21
EML2 (UniProt O95834)	1.13	0.223	-0.718
FXN (UniProt Q16595)	0.688	0.447	1.14
MAP2K7 (UniProt O14733)	-0.121	0.341	0.54
ROBO1 (UniProt Q9Y6N7)	0.154	0.0459	-0.29
PDXP (UniProt Q96GD0)	0.0465	0.133	-0.658
LATS1 (UniProt O95835)	-0.183	-0.189	-0.0262
TSEN2 (UniProt Q8NCE0)	0.337	0.418	-0.00537
FHL1 (UniProt Q13642)	0.358	0.294	-0.17

Target	thermal stability z-score (lipoamide; [1])	thermal stability z-score (lipoamide; arsenate co-treatment: none)	thermal stability z-score (potassium arsenate)
ATG4A (UniProt Q8WYN0)	0.167	0.0706	-0.744
VTI1B (UniProt Q9UEU0)	-0.0224	-0.376	-0.184
GLTP (UniProt Q9NZD2)	0.912	0.581	0.72
ARIH1 (UniProt Q9Y4X5)	-0.0195	-0.0439	-0.568
SETMAR (UniProt Q53H47)	-0.298	-0.25	-0.122
COL5A1 (UniProt P20908)	-1.41	-1.55	0.375
CCT3 (UniProt P49368)	0.066	-0.106	0.00358
LIN54 (UniProt Q6MZP7)	0.0767	-0.0219	0.0147
DUSP9 (UniProt Q99956)	0.738	0.0584	0.0461
MRPS18A (UniProt Q9NVS2)	-0.573	-0.402	0.196
GABPB1 (UniProt Q06547)	0.17	0.498	5.01
TSFM (UniProt P43897)	-0.91	-0.179	-0.0696
ESD (UniProt P10768)	-0.53	-0.395	0.445
HOOK2 (UniProt Q96ED9)	0.0635	-0.0859	-0.0139
AIMP1 (UniProt Q12904)	0.288	0.163	0.717
RNF149 (UniProt Q8NC42)	-0.375	-0.859	-0.556
SLC15A4 (UniProt Q8N697)	0.836	0.0913	-0.239
IL1RAP (UniProt Q9NPH3)	-0.15	-0.0435	-0.164
CALM1 (UniProt P0DP23)	3.06	1.53	1.29
PSMB4 (UniProt P28070)	0.411	0.72	0.545
RPL12 (UniProt P30050)	0.344	0.0511	-0.459
PPP1R11 (UniProt O60927)	0.0148	-0.832	-0.187
NARS2 (UniProt Q96I59)	-0.454	0.256	-0.19
IRF3 (UniProt Q14653)	0.883	-0.106	1.13
COX6B1 (UniProt P14854)	0.898	0.644	-0.234
RBBP4 (UniProt Q09028)	0.868	0.934	-0.0159
UBE2J2 (UniProt Q8N2K1)	-0.286	-0.461	-0.0347
